Experimental data taken from patent publication US20210113529A1, “MEDICINE FOR PREVENTING OR TREATING OPHTHALMIC DISEASE ASSOCIATED WITH ENHANCED INTRAOCULAR NEOVASCULARIZATION AND/OR INTRAOCULAR VASCULAR PERMEABILITY” (KYOTO UNIVERSITY, priority 2018, published 2021).

What was measured:
[1] = tested on: retinal vein occlusion (RVO) model; experiment: RVO model: retinal non perfusion area; type: in vivo, mice
Procedure: (§1) Eight-week-old mice (Japan SLC, Inc., ddy strain) were anesthetized by intramuscularly administering 10 mL/kg of a mixed anesthetic solution diluted so as to contain ketamine (120 mg/kg) and xylazine (6 mg/kg). After that, 0.15 mL of rose bengal (20 mg/kg; WAKO) was administered into the tail vein, and a vein three head systems away from the optic nerve head of the right eye of the mice was irradiated with a laser to occlude a retinal vein. Thus, a retinal non perfusion area was generated. For the occlusion, the laser irradiation was performed 10 times to 15 times per vein. For the laser irradiation, an attachment of a fundus photography apparatus Micron 4 (Phoenix Research Laboratories, Inc., Pleasanton, Calif., USA) was used (wavelength: 532 nm, spot size: 50 μm, irradiation time: 5,000 ms, laser output: 50 mW). Three veins were occluded per eye, and it was confirmed with photographs of the fundus that the laser-irradiated veins had been completely occluded. […]
The retinal flat mount specimen was photographed under a fluorescence microscope (BX50, Olympus) using a high-sensitivity cooling CCD camera (DP30BW, Olympus) through imaging software Metamorph (Universal Imaging Corp., Downingtown, Pa., USA) on an XY motor-operated stage (Sigma Koki Co., Ltd., Tokyo, Japan). […] The ratio of the retinal non perfusion area was quantified using analysis software in Metamorph. […]

[2] = tested on: retinal vein occlusion (RVO) model; experiment: RVO model, intravitreal administration: thickness of INL; type: in vivo, mice; settings: 0.8 ng, 8 ng or 80 ng per eye immediately after laser irradiation, 1 day after irradiation
Procedure: as §1, with “vein.” for “vein. Thus, a retinal non perfusion area was generated.”
After 1 day from the laser irradiation, the mice were euthanized by cervical dislocation, the eyeball was extirpated, and histological evaluation was performed by a hematoxylin-eosin staining method. In addition, the thickness of the retinal inner nuclear layer (INL) was measured at intervals of 240 μm on both sides, i.e., ear side and nose side from the center of the optic nerve head. […]

## C[C@H](Oc1ccc(-c2nc(-c3ccc4[nH]cnc4c3)no2)cc1C(F)(F)F)C(F)(F)F.Cl [Compound 1, 5-{5-[3-(trifluoromethyl)-4-{[(2S)-1,1,1-trifluoropropan-2-yl]oxy}phenyl]-1,2,4-oxadiazol-3-yl}-1H-benzimidazole monohydrochloride]
[1]; early administration: 0.3 mg/kg orally 12 hours before and immediately after laser irradiation
  enlargement of the non perfusion area: significantly reduced the enlargement of the non perfusion area
[1]; late administration: 0.3 mg/kg orally twice at an interval of 12 hours on the 7th day after laser irradiation
  enlargement of the non perfusion area: significantly reduced the enlargement of the non perfusion area
[2]
  thickening of the INL (retinal edema): ameliorated the thickening of the INL
